{"source": "paper PMC6811361", "about": "“Effect of a bound anion on the structure and dynamics of halorhodopsin from Natronomonas pharaonis” (Structural Dynamics, 2019)", "format_in_all_cases": "binding", "key": {"[1]": {"target": "T1, halorhodopsin from Natronomonas pharaonis (NpHR) (Natronomonas pharaonis, UniProt P15647, W229F)", "T1 construct": "gene hop; C-terminal His tag, expressed in E. coli BL21(DE3), solubilised and purified in DDM; all-trans-retinal on Lys256", "T1 sequence (P15647 whole entry W229F)": "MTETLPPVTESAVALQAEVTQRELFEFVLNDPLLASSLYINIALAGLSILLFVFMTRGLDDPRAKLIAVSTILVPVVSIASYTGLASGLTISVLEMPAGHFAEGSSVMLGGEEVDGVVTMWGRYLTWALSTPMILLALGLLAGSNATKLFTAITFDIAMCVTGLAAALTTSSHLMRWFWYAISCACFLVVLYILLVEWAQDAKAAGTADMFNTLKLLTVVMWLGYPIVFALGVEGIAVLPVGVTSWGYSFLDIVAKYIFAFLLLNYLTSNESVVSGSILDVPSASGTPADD", "experiment": "absorption and time-resolved UV resonance Raman spectroscopy", "details": "covalent, protonated Schiff base; retinal added to expression culture"}, "[2]": {"target": "T2, halorhodopsin from Natronomonas pharaonis (NpHR) (Natronomonas pharaonis, UniProt P15647, W127F)", "T2 construct": "gene hop; C-terminal His tag, expressed in E. coli BL21(DE3), solubilised and purified in DDM; all-trans-retinal on Lys256", "T2 sequence (P15647 whole entry W127F)": "as the sequence (P15647 whole entry W229F) above, with W127F, F229W counted along it", "experiment": "absorption and time-resolved UV resonance Raman spectroscopy", "details": "covalent, protonated Schiff base; retinal added to expression culture"}, "[3]": {"target": "T3, halorhodopsin from Natronomonas pharaonis (NpHR) (Natronomonas pharaonis, UniProt P15647)", "T3 construct": "gene hop; C-terminal His tag, expressed in E. coli BL21(DE3), solubilised and purified in DDM; all-trans-retinal on Lys256", "experiment": "visible resonance Raman spectroscopy (C=N stretch, deuteration shift)", "details": "covalent, protonated Schiff base at Lys256; pH 7.0; chloride-bound, formate-bound and anion-depleted forms"}}, "data": [{"smiles": "CC1=C(/C=C/C(C)=C/C=C/C(C)=C/C=O)C(C)(C)CCC1", "note": "[all-trans-retinal]", "values": [{"measurement": "absorption and time-resolved UV resonance Raman spectroscopy", "setting": "[1]", "value": "sufficient amounts of the W127F and W229F NpHR mutants were obtained to measure their spectra"}, {"measurement": "absorption and time-resolved UV resonance Raman spectroscopy", "setting": "[2]", "value": "sufficient amounts of the W127F and W229F NpHR mutants were obtained to measure their spectra"}, {"measurement": "visible resonance Raman spectroscopy (C=N stretch, deuteration shift)", "setting": "[3]", "value": "The observed deuteration shifts indicate that the Schiff base is protonated in all three forms"}]}]}
